Measurements reported in the supplement of paper PMC10307832.

Assays:
Assay in all cases: relative viability (nuclei count vs DMSO), 5 days (fraction); higher = more cells survive
[1] = tested on: RERF-LC-KJ
Procedure, shortened: (§1)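 After 5 days of treatment, lung cancer cells in 1536-well plates were fixed and stained in a single step (final 0.05% Triton X-100, 1% formaldehyde, 1 ug/ml Hoechst) and their nuclei counted on 4× images. Treatment had been applied by pin tool the day after seeding as one drug alone or as a fixed anchor-drug dose with five library-drug doses (not always all listed) in √10 steps. Relative viability is the nuclei count of treated wells divided by that of vehicle wells, and values are medians of duplicate plates.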

[2] = tested on: HCC-44
Procedure, shortened: as §1

[3] = tested on: SW 1573
Procedure, shortened: as §1

[4] = tested on: NCI-H3122
Procedure, shortened: as §1

[5] = tested on: HCC-366
Procedure, shortened: as §1

[6] = tested on: LOU-NH91
Procedure, shortened: as §1

[7] = tested on: NCI-H2405
Procedure, shortened: as §1

[8] = tested on: NCI-H2085
Procedure, shortened: as §1

[9] = tested on: NCI-H1666
Procedure, shortened: as §1

[10] = tested on: EMC-BAC-2
Procedure, shortened: as §1

[11] = tested on: HCC-827
Procedure, shortened: as §1

[12] = tested on: NCI-H23
Procedure, shortened: as §1

[13] = tested on: EPLC-272H
Procedure, shortened: as §1

[14] = tested on: NCI-H1975
Procedure, shortened: as §1

[15] = tested on: NCI-H2126
Procedure, shortened: as §1

[16] = tested on: SW 900
Procedure, shortened: as §1

[17] = tested on: LK-2
Procedure, shortened: as §1

[18] = tested on: LXF-289
Procedure, shortened: as §1

[19] = tested on: LU99A
Procedure, shortened: as §1

[20] = tested on: HCC-78
Procedure, shortened: as §1

[21] = tested on: ChaGo-K-1
Procedure, shortened: as §1

[22] = tested on: LCLC-103H
Procedure, shortened: as §1

[23] = tested on: SK-LU-1
Procedure, shortened: as §1

`C[C@@H]1CN(CC(=O)Nc2ccc3c(c2)Cc2cccc(-c4cc(=O)cc(N5CCOCC5)o4)c2S3)C[C@H](C)O1` + Cc1cc(Nc2cc(N3CCN(C)CC3)nc(Sc3ccc(NC(=O)C4CC4)cc3)n2)n[nH]1 [Tozasertib] (partner 0.1 µM) was tested, and the relative viability ([1]; first compound 0.04 µM) was 0.545, the relative viability ([1]; first compound 0.1265 µM) was 0.48 and the relative viability ([1]; first compound 0.4 µM) was 0.496. The relative viability ([1]; first compound 4 µM) was 0.351, the relative viability ([2]; first compound 0.04 µM) was 0.862 and the relative viability ([2]; first compound 0.1265 µM) was 0.933. The relative viability ([2]; first compound 0.4 µM) was 1.05, the relative viability ([2]; first compound 4 µM) was 0.652 and the relative viability ([3]; first compound 0.04 µM) was 0.224. The relative viability ([3]; first compound 0.1265 µM) was 0.18, the relative viability ([3]; first compound 0.4 µM) was 0.23 and the relative viability ([3]; first compound 4 µM) was 0.231. It also gave a relative viability ([4]; first compound 0.04 µM) of 0.4, a relative viability ([4]; first compound 0.1265 µM) of 0.403 and a relative viability ([4]; first compound 0.4 µM) of 0.265. The relative viability ([4]; first compound 4 µM) was 0.293, the relative viability ([5]; first compound 0.04 µM) was 0.165 and the relative viability ([5]; first compound 0.1265 µM) was 0.132. For the same molecule, the relative viability ([5]; first compound 0.4 µM) was 0.0609, the relative viability ([5]; first compound 4 µM) was 0.0509 and the relative viability ([6]; first compound 0.04 µM) was 0.605. It also gave a relative viability ([6]; first compound 0.1265 µM) of 0.649, a relative viability ([6]; first compound 0.4 µM) of 0.69 and a relative viability ([6]; first compound 4 µM) of 0.62. It also gave a relative viability ([7]; first compound 0.04 µM) of 0.676, a relative viability ([7]; first compound 0.1265 µM) of 0.766 and a relative viability ([7]; first compound 0.4 µM) of 0.703. The relative viability ([7]; first compound 4 µM) was 0.695, the relative viability ([8]; first compound 0.04 µM) was 0.85 and the relative viability ([8]; first compound 0.1265 µM) was 0.827. The relative viability ([8]; first compound 0.4 µM) was 0.739, the relative viability ([8]; first compound 4 µM) was 0.551 and the relative viability ([9]; first compound 0.04 µM) was 0.637. For the same molecule, the relative viability ([9]; first compound 0.1265 µM) was 0.689, the relative viability ([9]; first compound 0.4 µM) was 0.622 and the relative viability ([9]; first compound 4 µM) was 0.43. The relative viability ([10]; first compound 0.04 µM) was 0.257, the relative viability ([10]; first compound 0.1265 µM) was 0.29 and the relative viability ([10]; first compound 0.4 µM) was 0.294. For the same molecule, the relative viability ([10]; first compound 4 µM) was 0.264, the relative viability ([11]; first compound 0.04 µM) was 0.451 and the relative viability ([11]; first compound 0.1265 µM) was 0.396. The relative viability ([11]; first compound 0.4 µM) was 0.41, the relative viability ([11]; first compound 4 µM) was 0.427 and the relative viability ([12]; first compound 0.04 µM) was 0.362. The relative viability ([12]; first compound 0.1265 µM) was 0.308, the relative viability ([12]; first compound 0.4 µM) was 0.348 and the relative viability ([12]; first compound 4 µM) was 0.198. It also gave a relative viability ([13]; first compound 0.04 µM) of 0.189, a relative viability ([13]; first compound 0.1265 µM) of 0.237 and a relative viability ([13]; first compound 0.4 µM) of 0.256. For the same molecule, the relative viability ([13]; first compound 4 µM) was 0.243, the relative viability ([14]; first compound 0.04 µM) was 0.781 and the relative viability ([14]; first compound 0.1265 µM) was 0.675. The relative viability ([14]; first compound 0.4 µM) was 0.611, the relative viability ([14]; first compound 4 µM) was 0.193 and the relative viability ([15]; first compound 0.04 µM) was 0.898. The relative viability ([15]; first compound 0.1265 µM) was 0.83, the relative viability ([15]; first compound 0.4 µM) was 0.793 and the relative viability ([15]; first compound 4 µM) was 0.699. It also gave a relative viability ([16]; first compound 0.04 µM) of 0.463, a relative viability ([16]; first compound 0.1265 µM) of 0.579 and a relative viability ([16]; first compound 0.4 µM) of 0.476. For the same molecule, the relative viability ([16]; first compound 4 µM) was 0.335, the relative viability ([17]; first compound 0.1265 µM) was 0.174 and the relative viability ([17]; first compound 0.4 µM) was 0.185. It also gave a relative viability ([17]; first compound 4 µM) of 0.17, a relative viability ([18]; first compound 0.04 µM) of 0.193 and a relative viability ([18]; first compound 0.1265 µM) of 0.212. For the same molecule, the relative viability ([18]; first compound 0.4 µM) was 0.246, the relative viability ([18]; first compound 4 µM) was 0.191 and the relative viability ([19]; first compound 0.04 µM) was 0.243. The relative viability ([19]; first compound 0.1265 µM) was 0.257, the relative viability ([19]; first compound 0.4 µM) was 0.246 and the relative viability ([19]; first compound 4 µM) was 0.251. For the same molecule, the relative viability ([20]; first compound 0.04 µM) was 0.397, the relative viability ([20]; first compound 0.1265 µM) was 0.386 and the relative viability ([20]; first compound 0.4 µM) was 0.361. For the same molecule, the relative viability ([20]; first compound 4 µM) was 0.318, the relative viability ([21]; first compound 0.04 µM) was 0.264 and the relative viability ([21]; first compound 0.1265 µM) was 0.209. The relative viability ([21]; first compound 0.4 µM) was 0.226, the relative viability ([21]; first compound 4 µM) was 0.173 and the relative viability ([22]; first compound 0.04 µM) was 0.532. The relative viability ([22]; first compound 0.1265 µM) was 0.498, the relative viability ([22]; first compound 0.4 µM) was 0.544 and the relative viability ([22]; first compound 4 µM) was 0.417. For the same molecule, the relative viability ([23]; first compound 0.04 µM) was 0.334, the relative viability ([23]; first compound 0.1265 µM) was 0.326 and the relative viability ([23]; first compound 0.4 µM) was 0.323. The relative viability ([23]; first compound 4 µM) was 0.217.
